In patent US6407139B1, “Neovascularization inhibitor” (Kissei Pharmaceutical Co., Ltd., priority 1996, dated 2002):

What was measured:
Assay type in all cases: cell-based
[1] = tested on: human microvascular endothelial cells; experiment: Tube formation of human microvascular endothelial cells on matrigel (length of tube structures); details: 18 hours incubation, various concentrations, FIG. 4
Description: (§1) According to the method of Example 1 (1), human microvascular endothelial cells were cultured to prepare a cell suspension. Number of viable cells was counted under a phase-contrast microscopy using a hemocytometer and cell concentration was adjusted to 4×10^4 cells/ml.
Tranilast was added to 1% aqueous sodium bicarbonate solution to prepare 1.0% solution and dissolved by warming at 70° C. The solution was sterilized with millipore filter and diluted with MVE medium to a prescribed final concentration.
An aliquot (0.25 ml) of matrigel (10 mg/ml, Becton Dickinson Labware) was added to a 24-well culture plate (Corning) and was then allowed to solidify by incubation at 37° C. for 1 hour. Suspension (0.25 ml) of human microvascular endothelial cells (4×10^4 cells) and MVE medium (0.25 ml) containing various concentrations of Tranilast were added onto the gel. After 18 hours incubation at 37° C., 5 random fields of one well were photographed at ×40 magnification using a phase-contrast microscopy. The lengths of the tube structures were measured and the mean value was calculated.

[2] = tested on: human microvascular endothelial cells; experiment: Tube formation of human microvascular endothelial cells on matrigel (number of formed network); details: 18 hours incubation, various concentrations, FIG. 3
Description: as §1
Tranilast was added to 1% aqueous sodium bicarbonate solution to prepare 0.5% solution and dissolved by warming at 70° C. The solution was sterilized with millipore filter and diluted with MVE medium to a prescribed final concentration.
An aliquot (0.25 ml) of matrigel (10 mg/ml, Becton Dickinson Labware) was added to a 24-well culture plate (Corning) and was then allowed to solidify by incubation at 37° C. for 1 hour. Suspension (0.25 ml) of human microvascular endothelial cells (4×10^4 cells) and MVE medium (0.25 ml) containing various concentrations of Tranilast were added onto the gel.

[3] = tested on: human microvascular endothelial cells; experiment: Inhibition of chemotaxis of human microvascular endothelial cells to VEGF; details: chemotaxis to 100 ng/ml VEGF, 5 hours, 96-well micro chemotaxis chamber, FIG. 2
Description: According to the method of Example 1 (1), human microvascular endothelial cells were cultured to prepare a cell suspension. Number of viable cells was counted under a phase-contrast microscopy using a hemocytometer and cell concentration was adjusted to 2×10^4 cells/ml.
Tranilast was added to 1% aqueous sodium bicarbonate solution to prepare 0.55% solution and dissolved by warming at 70° C. The solution was sterilized with millipore filter and diluted with DMEM+Ham (1:1) medium to a prescribed final concentration.
Chemotaxis of human dermal microvascular endothelial cells (prepared in (1)) to vascular endothelial growth factor (VEGF) was studied using a 96-well micro chemotaxis chamber (Neuro Probe Inc.). An aliquot (32 μl) of DMEM+Ham (1:1) medium containing 100 ng/ml of VEGF, 0.1% bovine serum and various concentrations of Tranilast was added to the lower cavity of the chemotaxis chamber. An aliquot (50 μl) of medium containing cell suspension and Tranilast was added to the upper cavity of the chamber. Polycarbonate filter (10 μm thickness with 8 μm pore size; Neuro Probe Inc.) coated with type-1 collagen was used for the chemotaxis membrane. […] Number of migrated cells was counted in 5 random fields at ×400 magnification under a phase-contrast microscopy and mean chemotaxis cell number was calculated.
(§2) Mean and standard variation value of each group were calculated. […]

[4] = tested on: human microvascular endothelial cells; experiment: Inhibition of proliferation of human microvascular endothelial cells; details: normal human dermal microvascular endothelial cells, 2 days incubation with various concentrations, FIG. 1
Description: Normal human dermal microvascular endothelial cells (Cell Systems Corporation) were subcultured in a medium (MVE medium, Cell Systems Corporation) for endothelial cell culture and used for the study. At the logarithmic growth phase, the medium was aspirated and cells were washed with phosphate-buffered saline (PBS(−)) which was added gentlely. Then, the PBS(−) was aspirated, an aliquot of 0.25% trypsin solution containing 0.02% EDTA was added to the culture plate, and the morphology of cells was observed under a phase-contrast microscopy. When cells were going to be round, an equal value of MVE medium was added to the trypsin solution to stop the action of trypsin. Attached cells were harvested from the plate by pipetting the medium using a slender pasture pipette. […] Number of viable cells in an aliquot of the suspension was counted under a phase-contrast microscopy using a hemocytometer. […]
Cell suspension (1 ml) was added to collagen-coated 6-well plate(Toyobo Engineering Co., Ltd.) and cultured at 37° C. under a humidified atmosphere of 5% CO2 in air. […] After harvesting cells from the plate by pipetting using a pasture pipete, number of viable cells was counted using a hemocytometer.
as §2

## COc1ccc(/C=C/C(=O)Nc2ccccc2C(=O)O)cc1OC [Tranilast, N-(3,4-Dimethoxycinnamoyl)anthranilic acid]
[1]
  length of the tube structure (tube formation): significantly reduced in a concentration-dependent manner
[2]
  number of the formed network (tube formation): significantly reduced in a concentration-dependent manner
[3]
  chemotaxis of human microvascular endothelial cells (number of migrated cells): significantly suppressed
[4]
  proliferation of human microvascular endothelial cells (number of viable cells): significantly suppressed
